This is an account of results in patent US12617783B2, “Heterocyclic GLP-1R agonists” (BIOMEA FUSION, INC., priority 2024, dated 2026).

One may read the EC50 as the concentration needed to bring the measured effect to its halfway point.

SMILES strings stand for the structures.

In the first assay the target is T1, human GLP-1R (Homo sapiens, UniProt P43220).
T1 construct: host or cells: HEK293
T1 sequence (P43220 24-463): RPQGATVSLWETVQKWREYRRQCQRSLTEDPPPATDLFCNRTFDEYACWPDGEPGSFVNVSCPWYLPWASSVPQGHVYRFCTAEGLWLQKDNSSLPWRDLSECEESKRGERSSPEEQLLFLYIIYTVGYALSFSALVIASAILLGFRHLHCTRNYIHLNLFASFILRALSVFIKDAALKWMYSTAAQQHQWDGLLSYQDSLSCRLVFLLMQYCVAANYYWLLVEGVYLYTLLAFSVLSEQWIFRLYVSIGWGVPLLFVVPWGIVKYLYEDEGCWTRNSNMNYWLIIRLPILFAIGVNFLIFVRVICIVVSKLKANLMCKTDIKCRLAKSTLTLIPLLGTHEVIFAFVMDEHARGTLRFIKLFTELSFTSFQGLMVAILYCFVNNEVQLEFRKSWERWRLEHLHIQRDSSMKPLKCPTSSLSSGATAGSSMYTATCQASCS
In words: GLP-1R cAMP assay (Example B1a, HTRF, 30 min at room temperature). The settings on record: Table 1c, comparative compound; read-out: EC50. The assay is classed as cell-based. The method, boiled down: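 Competitive HTRF read-out of cAMP after 30 min room-temperature stimulation, BETP absent, of human GLP-1R-HEK293 cells (1,000/well) in HEPES buffer with 500 μM IBMX and 0.1% BSA. Activation normalised to GLP-1(7-37) positive control. EC50 from 4-parameter non-linear regression.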
In general terms: Cyclic AMP is a second messenger, typically raised through Gs and lowered through Gi signalling.
For the molecule `CCP(=O)(CC)c1ccc(-n2ccn(-c3c4c(nn3-c3cc(C)c(F)c(C)c3)CCN(C(=O)c3cc5cc(C6CCOCC6)ccc5n3[C@@]3(c5noc(=O)[nH]5)C[C@@H]3C)[C@H]4C)c2=O)cc1NC` [Compound 405], the EC50 is 0.0114 µM.

Still in this assay, the particulars now being: cAMP accumulation in HEK293 expressing human GLP-1R, no BETP, 30 min room temperature (Method B1a, compounds ID 1-609), Table 1; read-out: EC50.
In the case of `Cc1cc(-n2nc3c(c2-n2ccn(-c4ccc5c(cnn5C)c4F)c2=O)[C@@H]2CC[C@H](C3)N2C(=O)c2cc3sc([C@@H]4CCOC(C)(C)C4)nc3n2[C@@]2(c3noc(=O)[nH]3)C[C@@H]2C)cc(C)c1F` [Compound 307, 3-[(1S,2S)-1-[2-[(4R)-2,2-dimethyltetrahydropyran-4-yl]-5-[(1S,8R)-4-(4-fluoro-3,5-dimethyl-phenyl)-3-[3-(4-fluoro-1-methyl-indazol-5-yl)-2-oxo-imidazol-1-yl]-4,5,11-triazatricyclo[6.2.1.02,6]undeca-2,5-diene-11-carbonyl]pyrrolo[2,3-d]thiazol-4-yl]-2-methyl-cyclopropyl]-4H-1,2,4-oxadiazol-5-one], the EC50 is above 10 µM. Still for that read-out and setting: with `Cc1cc(-n2nc3c(c2-n2ccn(-c4ccc5c(cnn5C)c4Cl)c2=O)[C@@H]2CC[C@H](C3)N2C(=O)c2cc3cc([C@H]4CCOC(C)(C)C4)ccc3n2[C@@]2(c3noc(=O)[nH]3)C[C@@H]2C)cc(C)c1F` [Compound 308, 3-((1S,2S)-1-(2-((4S,7R)-3-(3-(4-chloro-1-methyl-1H-indazol-5-yl)-2-oxo-2,3-dihydro-1H-imidazol-1-yl)-2-(4-fluoro-3,5-dimethylphenyl)-2,4,5,6,7,8-hexahydro-4,7-epiminocyclohepta [c]pyrazole-9-carbonyl)-5-((S)-2,2-dimethyltetrahydro-2H-pyran-4-yl)-1H-indol-1-yl)-2-methylcyclopropyl)-1,2,4-oxadiazol-5(4H)-one] the figure was 0.197 µM.

As for `Cc1cc(-n2nc3c(c2-n2ccn(-c4ccc5nn(C(F)F)cc5c4F)c2=O)[C@@H]2CC[C@H](C3)N2C(=O)c2cc3cc([C@H]4CCOC(C)(C)C4)ccc3n2[C@@]2(c3noc(=O)[nH]3)C[C@@H]2C)cc(C)c1F` [Compound 309, 3-((1S,2S)-1-(2-((4S,7R)-3-(3-(2-(difluoromethyl)-4-fluoro-2H-indazol-5-yl)-2-oxo-2,3-dihydro-1H-imidazol-1-yl)-2-(4-fluoro-3,5-dimethylphenyl)-2,4,5,6,7,8-hexahydro-4,7-epiminocyclohepta [c]pyrazole-9-carbonyl)-5-((S)-2,2-dimethyltetrahydro-2H-pyran-4-yl)-1H-indol-1-yl)-2-methylcyclopropyl)-1,2,4-oxadiazol-5 (4H)-one], the EC50 came out at 0.721 µM. Take `Cc1cc(-n2nc3c(c2-n2ccn(-c4ccc5c(cnn5C(F)F)c4F)c2=O)[C@@H]2CC[C@H](C3)N2C(=O)c2cc3cc([C@H]4CCOC(C)(C)C4)ccc3n2[C@@]2(c3noc(=O)[nH]3)C[C@@H]2C)cc(C)c1F` [Compound 310, 3-((1S,2S)-1-(2-((4S,7R)-3-(3-(1-(difluoromethyl)-4-fluoro-1H-indazol-5-yl)-2-oxo-2,3-dihydro-1H-imidazol-1-yl)-2-(4-fluoro-3,5-dimethylphenyl)-2,4,5,6,7,8-hexahydro-4,7-epiminocyclohepta [c]pyrazole-9-carbonyl)-5-((S)-2,2-dimethyltetrahydro-2H-pyran-4-yl)-1H-indol-1-yl)-2-methylcyclopropyl)-1,2,4-oxadiazol-5(4H)-one]: the EC50 was found to be 0.182 µM. On the same count and under the same terms, the figure for `Cc1cc(-n2nc3c(c2-n2ccn(-c4ccc5c(cnn5C)c4F)c2=O)[C@@H]2CC[C@H](C3)N2C(=O)c2cc3cc(C4CCOC(C)(C)C4)cnc3n2[C@@]2(c3noc(=O)[nH]3)C[C@@H]2C)cc(C)c1F` (stereo partly drawn) [Compound 311, 3-((1S,2S)-1-(5-(2,2-dimethyltetrahydro-2H-pyran-4-yl)-2-((4S,7R)-3-(3-(4-fluoro-1-methyl-1H-indazol-5-yl)-2-oxo-2,3-dihydro-1H-imidazol-1-yl)-2-(4-fluoro-3,5-dimethylphenyl)-2,4,5,6,7,8-hexahydro-4,7-epiminocyclohepta [c]pyrazole-9-carbonyl)-1H-pyrrolo[2,3-b]pyridin-1-yl)-2-methylcyclopropyl)-1,2,4-oxadiazol-5(4H)-one] is 0.0573 µM.

In the case of `Cc1cc(-n2nc3c(c2-n2ccn(-c4ccc5c(cnn5C)c4F)c2=O)[C@@H]2CC[C@H](C3)N2C(=O)c2cc3cc([C@@H]4CCOC(C)(C)C4)cnc3n2[C@@]2(c3noc(=O)[nH]3)C[C@@H]2C)cc(C)c1F` [Compound 312, 3-((1S,2S)-1-(5-((R)-2,2-dimethyltetrahydro-2H-pyran-4-yl)-2-((4S,7R)-3-(3-(4-fluoro-1-methyl-1H-indazol-5-yl)-2-oxo-2,3-dihydro-1H-imidazol-1-yl)-2-(4-fluoro-3,5-dimethylphenyl)-2,4,5,6,7,8-hexahydro-4,7-epiminocyclohepta [c]pyrazole-9-carbonyl)-1H-pyrrolo[2,3-b]pyridin-1-yl)-2-methylcyclopropyl)-1,2,4-oxadiazol-5(4H)-one], the EC50 came out at 1.34 µM. With `Cc1cc(-n2nc3c(c2-n2ccn(-c4ccc5c(cnn5C)c4F)c2=O)[C@@H]2CC[C@H](C3)N2C(=O)c2cc3cc([C@H]4CCOC(C)(C)C4)cnc3n2[C@@]2(c3noc(=O)[nH]3)C[C@@H]2C)cc(C)c1F` [Compound 313, 3-((1S,2S)-1-(5-((S)-2,2-dimethyltetrahydro-2H-pyran-4-yl)-2-((4S,7R)-3-(3-(4-fluoro-1-methyl-1H-indazol-5-yl)-2-oxo-2,3-dihydro-1H-imidazol-1-yl)-2-(4-fluoro-3,5-dimethylphenyl)-2,4,5,6,7,8-hexahydro-4,7-epiminocyclohepta [c]pyrazole-9-carbonyl)-1H-pyrrolo[2,3-b]pyridin-1-yl)-2-methylcyclopropyl)-1,2,4-oxadiazol-5 (4H)-one], the EC50 was 0.0187 µM. Take `Cc1cc(-n2nc3c(c2-n2ccn(-c4ccc5c(cnn5C)c4F)c2=O)[C@@H]2CC[C@H](C3)N2C(=O)c2cc3ccc([C@H]4CCOC(C)(C)C4)cc3nc2[C@@]2(c3noc(=O)[nH]3)C[C@@H]2C)cc(C)c1F` [Compound 318, 3-[(1R,2S)-1-[7-[(4S)-2,2-dimethyltetrahydropyran-4-yl]-3-[(1S,8R)-4-(4-fluoro-3,5-dimethyl-phenyl)-3-[3-(4-fluoro-1-methyl-indazol-5-yl)-2-oxo-imidazol-1-yl]-4,5,11-triazatricyclo[6.2.1.02,6]undeca-2,5-diene-11-carbonyl]-2-quinolyl]-2-methyl-cyclopropyl]-4H-1,2,4-oxadiazol-5-one]: the EC50 amounted to 0.87 µM. With `Cc1cc(-n2nc3c(c2-n2ccn(-c4ccc5c(cnn5C)c4F)c2=O)[C@@H]2CC[C@H](C3)N2C(=O)c2cc3ccc([C@@H]4CCOC(C)(C)C4)cc3nc2[C@@]2(c3noc(=O)[nH]3)C[C@@H]2C)cc(C)c1F` [Compound 319, 3-[(1R,2S)-1-[7-[(4R)-2,2-dimethyltetrahydropyran-4-yl]-3-[(1S,8R)-4-(4-fluoro-3,5-dimethyl-phenyl)-3-[3-(4-fluoro-1-methyl-indazol-5-yl)-2-oxo-imidazol-1-yl]-4,5,11-triazatricyclo[6.2.1.02,6]undeca-2,5-diene-11-carbonyl]-2-quinolyl]-2-methyl-cyclopropyl]-4H-1,2,4-oxadiazol-5-one], the EC50 was 0.469 µM. Regarding `Cc1cc(-n2nc3c(c2-n2ccn(-c4ccc5c(cnn5C)c4)c2=O)[C@@H]2CC[C@H](C3)N2C(=O)c2cc3cc([C@H]4CCOC5(CC5)C4)ccc3n2[C@@]2(c3noc(=O)[nH]3)C[C@@H]2C)cc(C)c1F` [Compound 323, 3-[(1S,2S)-1-[2-[(1S,8R)-4-(4-fluoro-3,5-dimethyl-phenyl)-3-[3-(1-methylindazol-5-yl)-2-oxo-imidazol-1-yl]-4,5,11-triazatricyclo[6.2.1.02,6]undeca-2,5-diene-11-carbonyl]-5-[(7S)-4-oxaspiro[2.5]octan-7-yl]indol-1-yl]-2-methyl-cyclopropyl]-4H-1,2,4-oxadiazol-5-one], the EC50 worked out at 0.0793 µM. As to `Cc1cc(-n2nc3c(c2-n2ccn(-c4ccc5c(cnn5C)c4F)c2=O)[C@@H]2CC[C@H](C3)N2C(=O)c2cc3cn(C4CCOC(C)(C)C4)c(=O)cc3n2[C@@]2(c3noc(=O)[nH]3)C[C@@H]2C)cc(C)c1F` (stereo partly drawn) [Compound 324, 3-[(1S,2S)-1-[5-(2,2-dimethyltetrahydropyran-4-yl)-2-[(1S,8R)-4-(4-fluoro-3,5-dimethyl-phenyl)-3-[3-(4-fluoro-1-methyl-indazol-5-yl)-2-oxo-imidazol-1-yl]-4,5,11-triazatricyclo[6.2.1.02,6]undeca-2,5-diene-11-carbonyl]-6-oxo-pyrrolo[3,2-c]pyridin-1-yl]-2-methyl-cyclopropyl]-4H-1,2,4-oxadiazol-5-one], the EC50 was found to be 0.264 µM. For `Cc1cc(-n2nc3c(c2-n2ccn(-c4ccc5[nH]ncc5c4F)c2=O)[C@@H]2CC[C@H](C3)N2C(=O)c2cc3cc([C@H]4CCOC(C)(C)C4)ccc3n2[C@@]2(c3noc(=O)[nH]3)C[C@@H]2C)cc(C)c1F` [Compound 406, 3-((1S,2S)-1-(5-((S)-2,2-dimethyltetrahydro-2H-pyran-4-yl)-2-((4S,7R)-3-(3-(4-fluoro-1H-indazol-5-yl)-2-oxo-2,3-dihydro-1H-imidazol-1-yl)-2-(4-fluoro-3,5-dimethylphenyl)-2,4,5,6,7,8-hexahydro-4,7-epiminocyclohepta [c]pyrazole-9-carbonyl)-1H-indol-1-yl)-2-methylcyclopropyl)-1,2,4-oxadiazol-5 (4H)-one], the EC50 stood at 0.0184 µM.

`Cc1cc(-n2nc3c(c2-n2ccn(-c4ccc5cnncc5c4F)c2=O)[C@@H]2CC[C@H](C3)N2C(=O)c2cc3cc([C@H]4CCOC(C)(C)C4)ccc3n2[C@@]2(c3noc(=O)[nH]3)C[C@@H]2C)cc(C)c1F` [Compound 410, 3-((1S,2S)-1-(5-((S)-2,2-dimethyltetrahydro-2H-pyran-4-yl)-2-((4S,7R)-2-(4-fluoro-3,5-dimethylphenyl)-3-(3-(5-fluorophthalazin-6-yl)-2-oxo-2,3-dihydro-1H-imidazol-1-yl)-2,4,5,6,7,8-hexahydro-4,7-epiminocyclohepta [c]pyrazole-9-carbonyl)-1H-indol-1-yl)-2-methylcyclopropyl)-1,2,4-oxadiazol-5 (4H)-one]: the EC50 turned out to be 0.0147 µM.
